Here are results for three compounds from article PMC8131363 (Scientific Reports, 2021).

For data set [1] the following is noted: GSH at 2.5 mM.
Data set [2] addresses T1, cCaSR (Felis catus, UniProt C7FF08).
T1 sequence (C7FF08 1-1081): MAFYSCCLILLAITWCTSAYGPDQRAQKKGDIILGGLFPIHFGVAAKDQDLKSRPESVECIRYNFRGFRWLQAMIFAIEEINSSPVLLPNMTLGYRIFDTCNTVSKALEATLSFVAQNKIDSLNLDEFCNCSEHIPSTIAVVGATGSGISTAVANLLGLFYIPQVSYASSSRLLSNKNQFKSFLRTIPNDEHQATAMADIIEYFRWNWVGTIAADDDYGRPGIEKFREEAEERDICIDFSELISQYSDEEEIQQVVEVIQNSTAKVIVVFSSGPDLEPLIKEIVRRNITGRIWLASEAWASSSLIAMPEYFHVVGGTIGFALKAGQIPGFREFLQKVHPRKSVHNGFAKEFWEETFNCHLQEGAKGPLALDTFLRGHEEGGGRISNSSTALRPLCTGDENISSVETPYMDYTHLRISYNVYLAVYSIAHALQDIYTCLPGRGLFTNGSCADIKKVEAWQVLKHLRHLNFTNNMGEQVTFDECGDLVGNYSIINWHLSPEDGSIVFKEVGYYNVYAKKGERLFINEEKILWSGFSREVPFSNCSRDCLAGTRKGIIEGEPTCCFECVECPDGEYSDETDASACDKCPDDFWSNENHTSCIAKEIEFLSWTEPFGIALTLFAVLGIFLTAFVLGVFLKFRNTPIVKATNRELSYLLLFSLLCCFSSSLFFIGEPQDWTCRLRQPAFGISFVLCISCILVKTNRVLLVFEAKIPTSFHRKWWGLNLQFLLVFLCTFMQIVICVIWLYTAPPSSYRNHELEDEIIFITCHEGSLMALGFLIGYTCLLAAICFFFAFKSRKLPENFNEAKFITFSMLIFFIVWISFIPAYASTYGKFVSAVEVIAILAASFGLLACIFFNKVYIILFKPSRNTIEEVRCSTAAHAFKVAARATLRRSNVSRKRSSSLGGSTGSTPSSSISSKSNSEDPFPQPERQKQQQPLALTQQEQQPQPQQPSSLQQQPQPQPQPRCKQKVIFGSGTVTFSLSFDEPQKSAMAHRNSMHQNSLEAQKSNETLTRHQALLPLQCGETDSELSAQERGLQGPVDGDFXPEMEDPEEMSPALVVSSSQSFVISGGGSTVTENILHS
The data set can be described thus: cCaSR PAM luminescence assay, double injection with 0.5 mM CaCl2, HEK293/T-REx/natClytin-cCaSR. Particulars: Supplementary Table I, PAM assay, dash = no activity.
Procedure: The cCaSR expression constructs were stably-transfected in the mammalian cell line, HEK293/ T-REx/ natClytin. Transfections were performed by electroporation, following standard methodologies. Stably-transfected target and mock pools were obtained after 2–3 weeks of antibiotic selection, and clones were selected for testing. In order to evaluate the activity of each clone, 10 mM Calcium was injected onto the cells and the resulting luminescence was measured.
All compounds screened on the receptor were analysed in parallel with Calcium, on the HEK293/ T-REx/ natClytin-cCaSR or hCaSR stable or transient cell lines. Prior to the measurements, the cells were incubated with 10 µM of photoprotein substrate, Coelenterazine, prepared in Calcium-free Tyrode’s buffer at 37 °C for 3–4 h. All the data was captured using a FLIPR Tetra (Molecular Devices). A single or double injection protocol was used to capture the data for potential agonists and PAMs, respectively. The compounds tested were all prepared at desired concentration in Calcium-Free Tyrode’s buffer supplemented with 0.5% DMSO. For the activity determination of potential agonists, the single injection protocol was used, with CaCl2 as the positive control for each run. Each compound was injected into specific wells and the luminescence signal was measured for 1 min. for each compound. For potential PAMs, the double injection protocol was used. The first injection was identical to the one described above for potential agonists. A 20 min. resting period followed the first injection and a second injection of 0.5 mM CaCl2 in Calcium-free Tyrode’s buffer was injected to all wells, and the resulting luminescence signal was again measured for 1 min for each compound.
The half maximal effective concentrations (EC50) were identified by nonlinear regression using a variable slope model with the equation Y = Bottom + (X^Hillslope)*(Top–Bottom)/ (X^HillSlope + EC50^HillSlope), where Y is the agonist concentration, Top and Bottom are the plateaus in the same units as Y and HillSlope is the Slope factor or Hill slope. All calculations and plots were done using GraphPad Prism 8. […] In these cases the EC50 was noted as being higher than the maximum concentration used in the assay.

Data set [3] concerns the target T1, cCaSR. The data set can be described thus: cell-based.
Data set [4] addresses T1, cCaSR.
Where [5] appears, read: read-out: cCaSR activity, agonist assay, stable inducible cCaSR line, at least three wells.
The mark [6] stands for this setting: read-out: cCaSR stable EC50, stably expressed cCaSR, Fig. 6b, > 3 mM = maximal response not reached.

Like-named read-outs stand apart in the source and are kept apart here.

`N[C@@H](CCC(=O)N[C@@H](CS)C(=O)NCC(=O)O)C(=O)O` [Glutathione]: the pH of solution in data set [1] is 3.48. Moreover, on cCaSR [2], the “EC50 PAM (M)” value was “-”. The EC50 at cCaSR [3] (EC50 (M), agonist assay, stable inducible cCaSR line, > 0.01 M = maximal response not reached) is 0.00639 M; at cCaSR [3] (EC50 Ago (M), Supplementary Table I, agonist assay, > 0.01 M = maximal response not reached), 0.0064 M; at cCaSR [3] (cCaSR activity, agonist assay, stable inducible cCaSR line, at least three wells), 0.001 to 0.01 M; on cCaSR [3] (cCaSR stable EC50(mM), stably expressed cCaSR, Fig. 6b, > 3 mM = maximal response not reached) it was greater than 0.003 M.

For the compound `[Ca+2].[Cl-].[Cl-]` [Ca^2+, CaCl2], the “EC50 PAM (M)” value on cCaSR [2] was “-”. Besides, the EC50 at cCaSR [4] (agonist assay, stable inducible cCaSR line, > 0.01 M = maximal response not reached) was 1.62 mM; on cCaSR [4] (read-out: EC50 Ago, Supplementary Table I, agonist assay, > 0.01 M = maximal response not reached), 1.62 mM; on cCaSR [4] (setting [5]), 1 to 10 mM; on cCaSR [4] (setting [6]), 1.47 mM.

For `[Cl-].[Cl-].[Mg+2]` [Mg^2+, MgCl2], the “EC50 PAM (M)” value at cCaSR [2] is reported as “-”. Further, the EC50 at cCaSR [4] (setting [5]) was greater than 10 mM; on cCaSR [4] (setting [6]), greater than 3 mM.
